tested on: acetylcholine-bromide induced abdominal constriction response; assay: Mouse Acetylcholine Bromide-Induced Abdominal Constriction Assay; assay type: in vivo; settings: po, 30 min before i.p. 5.5 mg/kg acetylcholine bromide, 10 min observation

| Structure (SMILES) | % Inhibition at 30 mg/kg |
| --- | --- |
| CN1C[C@H]2CC[C@](O)(c3cccc(C(F)(F)F)c3)[C@H]2C1 (relative stereo) [Cp-3] | 87% |
| CN1C[C@H]2CC[C@](O)(c3ccc(F)cc3)[C@H]2C1 (relative stereo) [Cp-2] | 87% |
| CN1C[C@H]2CC[C@](O)(c3ccccc3)[C@H]2C1 (relative stereo) [Cp-1] | 87% |
| CN1C[C@H]2CC[C@@H](c3ccc(F)cc3)[C@H]2C1 (relative stereo) [Cp-5] | 87% |

same assay, conditions: sc, 30 min before i.p. 5.5 mg/kg acetylcholine bromide, 10 min observation

| Structure (SMILES) | % Inhibition at 30 mg/kg |
| --- | --- |
| CN1C[C@H]2CC[C@@H](c3cccc(C(F)(F)F)c3)[C@H]2C1 (relative stereo) [Cp-6] | 87% |
| CN1C[C@H]2CC[C@@H](c3ccccc3)[C@H]2C1 (relative stereo) [Cp-4] | 100% |
| CN1C[C@H]2CC[C@H](c3ccccc3)[C@H]2C1 (relative stereo) [Cp-7] | 100% |

Source: patent publication US5541217A, “4-arylcyclopenta[c]pyrrole analgesics” (Ortho Pharmaceutical Corporation, priority 1995, dated 1996)
